Data as given in publication PMC1448180, “Small-molecule and mutational analysis of allosteric Eg5 inhibition by monastrol” (BMC Chemical Biology, 2006).

Key:
Klp61F-364H = target: T1, Klp61F-364H (Drosophila melanogaster, UniProt P46863); assay: ATP hydrolysis by Klp-61F motor domain (NADH-enzyme coupled assay); format: biochemical, D. melanogaster
T1 construct: His6 (C); made in house; host or cells: vector pRSETa
T1 sequence (P46863 1-364): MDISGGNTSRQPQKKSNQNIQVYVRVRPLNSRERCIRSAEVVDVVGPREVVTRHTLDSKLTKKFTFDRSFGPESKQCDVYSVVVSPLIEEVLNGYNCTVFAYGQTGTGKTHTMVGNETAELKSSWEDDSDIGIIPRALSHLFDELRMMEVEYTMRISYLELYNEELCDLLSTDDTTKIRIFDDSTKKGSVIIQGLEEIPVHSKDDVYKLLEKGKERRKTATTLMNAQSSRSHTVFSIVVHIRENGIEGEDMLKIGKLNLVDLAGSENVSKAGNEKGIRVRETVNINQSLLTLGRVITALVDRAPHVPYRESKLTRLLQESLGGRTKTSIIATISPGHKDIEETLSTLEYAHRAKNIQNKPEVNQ
Protocol: Each data point is the average of three independent experiments.
(§1) ATP hydrolysis by recombinantly expressed kinesin motor domains was measured using an NADH-enzyme coupled assay. ATP hydrolysis was measured in KC25 buffer supplemented with 5 μM taxol, 1 mM ATP-KOH (pH 7.0), the appropriate concentration of motor domain, and the appropriate concentrations of taxol-polymerized microtubules.

hEg5-367H (Y211M) = target: T2, hEg5-367H (Y211M) (Homo sapiens, UniProt P52732, Y211M); assay: ATP hydrolysis by Eg5 motor domain mutant Y211M; format: biochemical; conditions: Figure 4B; legend: basal ATP hydrolysis; read-out: IC50(μM) of monastrol, (Y211M)
T2 sequence (P52732 1-367 Y211M): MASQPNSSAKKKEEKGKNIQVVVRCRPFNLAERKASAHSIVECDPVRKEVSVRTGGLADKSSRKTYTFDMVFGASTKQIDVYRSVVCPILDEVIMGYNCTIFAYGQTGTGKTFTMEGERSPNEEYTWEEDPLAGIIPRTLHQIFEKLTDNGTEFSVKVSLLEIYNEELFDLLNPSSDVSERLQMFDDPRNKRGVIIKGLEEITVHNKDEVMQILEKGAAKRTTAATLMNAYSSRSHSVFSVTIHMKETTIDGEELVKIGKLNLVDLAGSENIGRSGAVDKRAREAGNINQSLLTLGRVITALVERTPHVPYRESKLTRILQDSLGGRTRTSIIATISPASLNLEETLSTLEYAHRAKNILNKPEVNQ
From the text: Figure 4 Mutagenesis of the monastrol binding site in human Eg5. (A) Design of mutations in the human Eg5 motor domain. Amino acid side chains that are not conserved between Eg5 and conventional kinesin were targeted, either introducing chimeric or rationally designed mutations (asterix for targeted point mutants) to test the contribution of residues to the drug-sensitivity of Eg5. (B) Steady-state enzymatic parameters for engineered human Eg5 motor domain mutants. Steady-state ATP hydrolysis by Eg5 was measured using an NADH-enzyme coupled assay varying the concentration of ATP, microtubules, or monastrol to obtain the microtubule concentration for half-maximal stimulation (K0.5MT), the maximal rate of microtubule-stimulated ATP hydrolysis (kcat), and the concentration of monastrol that inhibits basal ATP hydrolysis by 50 % (IC50), as described.
We used a modified PCR mutagenesis protocol to introduce mutations into hEg5-367H, a plasmid encoding the C-terminally His6-tagged motor domain (amino acid residues 1–367) of human Eg5. […]
as §1

AB9 cells = assay: Spindle phenotype of D. rerio cells treated with monastrol; format: cell-based; conditions: data not shown
From the text: (§2) Monastrol binds a hydrophobic pocket between loop 5 and α3 that is poorly conserved among kinesins, resulting in specificity for vertebrate Eg5 homologs. […] Monastrol is known to inhibit human and Xenopus Eg5 [7, 9], but not BimC [27]. To test its effect on D. rerio Eg5 and Klp-61F, we treated AB9 and KC167 cells with monastrol. […] To obtain unambiguous evidence, we cloned the motor domain of Klp-61F and subjected the recombinant protein to ATPase assays in the presence or absence of microtubules.
(§3) Conditions for growing the following cell lines are as described: D. rerio AB9 (37), D. melanogaster KC167 [38], and BS-C-1 green monkey kidney cells. For immunofluorescence microscopy, cells were grown on 12 mm circular coverslips to 30 % confluence, treated medium supplemented with drug and 0.2% DMSO, or a DMSO alone, for 6 hours, fixed with formaldehyde, and stained for DNA and microtubules, as described. D. melanogaster KC167 cells were cultured in Schneider's Drosophila Medium (GIBCO) whereas D. rerio AB9 cells and BS-C-1 green monkey kidney cells were cultured at 37°C in Dulbecco's Minimal medium in the presence of 10 % heat inactivated fetal calf serum.

KC167 cells = assay: Spindle phenotype of Drosophila cells treated with monastrol; format: cell-based, D. melanogaster; conditions: data not shown
From the text: as §2, §3

CCOC(=O)C1=C(C)NC(=S)NC1c1cccc(O)c1 (stereo not shown) [Monastrol]
Inhibition of microtubule-stimulated ATP hydrolysis by Klp-61F motor domain, in words (Klp61F-364H): weakly inhibited
IC50 (hEg5-367H (Y211M)): 0.8 ± 0.3 µM
Effect on mitosis in D. rerio cells (AB9 cells): mitotic arrest
Effect on spindles in Drosophila cells (KC167 cells): normal, bipolar spindles
